In paper PMC2213565 (The Journal of General Physiology, 2008):
Where two headings read alike, the source gives them in different places.

Legend:
5-HT3A [1] = target: T1, 5-HT3A (Mus musculus, UniProt P23979); assay: Whole cell patch clamp of HEK293T cells transiently expressing 5-HT3A; assay type: cell-based; conditions: HEK293T cells expressing 5-HT3A
T1 sequence (P23979 24-489): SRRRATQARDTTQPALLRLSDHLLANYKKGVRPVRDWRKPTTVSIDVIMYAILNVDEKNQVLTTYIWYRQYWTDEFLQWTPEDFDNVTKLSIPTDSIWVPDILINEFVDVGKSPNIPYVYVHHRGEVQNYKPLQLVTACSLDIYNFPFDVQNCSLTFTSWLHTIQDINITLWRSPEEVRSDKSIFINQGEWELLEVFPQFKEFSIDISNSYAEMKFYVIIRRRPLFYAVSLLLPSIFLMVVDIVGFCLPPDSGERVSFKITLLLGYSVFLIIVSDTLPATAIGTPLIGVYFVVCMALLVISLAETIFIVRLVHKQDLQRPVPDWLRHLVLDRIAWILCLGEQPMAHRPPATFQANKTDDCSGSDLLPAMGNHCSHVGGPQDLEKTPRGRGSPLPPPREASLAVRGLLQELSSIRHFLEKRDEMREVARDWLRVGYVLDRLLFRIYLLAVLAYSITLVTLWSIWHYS

5-HT3A-glvM3M4 [2] = target: T2, 5-HT3A-glvM3M4 (Mus musculus, UniProt P23979); assay: Whole cell patch clamp of HEK293T cells transiently expressing 5-HT3A-glvM3M4; assay type: cell-based
T2 sequence (P23979 24-326 limits assumed): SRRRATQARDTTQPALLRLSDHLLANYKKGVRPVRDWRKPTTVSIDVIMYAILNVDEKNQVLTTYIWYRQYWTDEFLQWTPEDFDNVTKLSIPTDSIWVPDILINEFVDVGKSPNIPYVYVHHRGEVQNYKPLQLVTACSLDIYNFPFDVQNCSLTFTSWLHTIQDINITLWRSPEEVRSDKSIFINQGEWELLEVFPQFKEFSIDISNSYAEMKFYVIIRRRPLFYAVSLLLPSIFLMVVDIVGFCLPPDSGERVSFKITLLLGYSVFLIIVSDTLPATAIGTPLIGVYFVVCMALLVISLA

5-HT3A [3] = target: T1, 5-HT3A; assay: Two-electrode voltage clamp of Xenopus oocytes expressing 5-HT3A wild type; assay type: cell-based
5-HT3A-glvM3M4 [4] = target: 5-HT3A-glvM3M4 (Mus musculus, UniProt P23979); assay type: cell-based
mouse 5-HT3A receptors = conditions: competitive antagonist; ref Costall et al., 1987; cited from earlier work

## NCCc1c[nH]c2ccc(O)cc12 [5-HT, 5-hydroxytryptamine]
5-HT3A [1]; 5-HT 1 μM
  whole cell currents evoked: 1 to 5 nA
5-HT3A-glvM3M4 [2]; HEK293T cells expressing 5-HT3A-glvM3M4, 5-HT 1 μM
  whole cell currents evoked: 1 to 5 nA

## Cc1cccc(C)c1NC(=O)C[N+](C)(C)C [QX-222]
5-HT3A [3]; 5-HT3A-wt, QX-222 20 μM, n = 6
  inhibition of 5-HT EC70 currents: 80 ± 4%
5-HT3A-glvM3M4 [4]; 5-HT3A-glvM3M4, QX-222 20 μM, n = 6
  inhibition of 5-HT EC70 currents: 79 ± 2%

## COc1ccc([C@@H]2Sc3ccccc3N(CCN(C)C)C(=O)[C@@H]2OC(C)=O)cc1 [diltiazem]
5-HT3A [3]
  IC50: 16 ± 1 µM
5-HT3A-glvM3M4 [4]
  IC50: 12 ± 3 µM

## Cc1nccn1CC1CCc2c(c3ccccc3n2C)C1=O (centres unmarked) [ondansetron]
5-HT3A [3]; 5-HT3A, EC30 concentration of 5-HT with ondansetron at 1/3 of the 5-HT concentration, n = 3
  inhibition of 5-HT currents: 98.2 ± 0.4%
5-HT3A-glvM3M4 [4]; 5-HT3A-glvM3M4, EC30 concentration of 5-HT with ondansetron at 1/3 of the 5-HT concentration, n = 4
  inhibition of 5-HT currents: 98.8 ± 0.4%
5-HT3A [1]; 100 nM ondansetron
  inhibition of whole cell currents evoked by 1 μM 5-HT: totally inhibited
5-HT3A-glvM3M4 [2]; HEK293T cells expressing 5-HT3A-glvM3M4, 100 nM ondansetron
  inhibition of whole cell currents evoked by 1 μM 5-HT: totally inhibited
Mouse 5-HT3A receptors
  IC50 for inhibition of mouse 5-HT3A receptors: high picomolar

## picrotoxin
5-HT3A [3]; read-out: picrotoxin IC50, 5-HT3A-wt, coapplied with 5-HT EC30 concentration, n = 3
  IC50: 60 ± 10 µM
5-HT3A-glvM3M4 [4]; picrotoxin IC50, 5-HT3A-glvM3M4 versus 5-HT3A-wt
  fold lower IC50 in 5-HT3A-glvM3M4 than in wild type: 10 fold
5-HT3A-glvM3M4 [4]; read-out: picrotoxin IC50, 5-HT3A-glvM3M4, coapplied with 5-HT EC30 concentration, n = 6
  IC50: 6.8 ± 1.1 µM
